This is an account of results in patent publication US20200377885A1, “COMPOSITIONS AND METHODS FOR THE GENERATION OF NEURONS AND USES THEREOF” (Washington University, priority 2017, published 2020).

Entries after “also recorded” stand apart in the source; their conditions may differ.

Assay [1] deals with ATM (Homo sapiens, UniProt Q13315). To be noted: earlier findings; cited from earlier work.
The subject of assay [2] is HD-MSNs. Briefly: Spontaneous cell death of HD-MSNs by SYTOX green dead-cell staining. It is filed as cell-based, human. To be noted: 0.5 μM added at 30 days post induction, assessed at PID 35, vs DMSO. As for the experimental part: (§1) In addition, Hoechst 33342 solution (Thermo Fisher Scientific) was added as a counterstain to label all nuclei at a final concentration of 1 μg/ml in culture media. Samples were incubated for at least 10 minutes in 37° C. Images were captured using a Leica DMI 400B inverted microscope with Leica Application Suite (LAS) Advanced Fluorescence. Three images were taken from random areas of each coverslip for at least three biological replicates per experiment. Quantification performed by counting number of SYTOX-positive cells over total Hoechst signal.
(§2) The ATM-Kinase inhibitor KU-60019 was obtained from Abcam (ab144817), solubilized in DMSO and directly added to the cell culture media for a final concentration of 0.5 μM at 30 days post miR-9/9*-124 induction, then cell death was assessed by SYTOX at PID 35. Controls were treated with the same volume of DMSO but no drug. At day 35, cells treated with DMSO or KU-60019 also were treated with 1 mM of H2O2 for three hours. SYTOX green/Hoechst stain was added as already described and imaged for scoring.

For assay [3], the system named is HD-MSNs. Put plainly: H2O2-induced oxidative stress cell death of HD-MSNs (SYTOX green/Hoechst). Type of assay: cell-based, human. To be noted: 0.5 μM, 1 mM H2O2 for three hours at day 35, vs DMSO. As to the method:
as §1, §2

The subject of assay [4] is GFP-74Q-expressing HEF cells. Put plainly: Inclusion body formation in GFP-74Q-expressing HEFs after proteasome inhibition. Type of assay: cell-based, human. Particulars: 5 μM, 24 hours later, vs DMSO. From the text: Because the findings contrasted with previous studies that report the lack of mHTT aggregates in iPSC-derived neurons from HD patients, it was decided to directly test if altering the cellular state of adult HD fibroblasts to an embryonic-like stage, a process that effectively erases aging markers, would affect the aggregation propensity of mHTT in HD-MSNs. HD-iPSCs were derived from adult HD fibroblasts and these stem cells were differentiated back into fibroblasts using a method for generating human embryonic fibroblasts (HEFs) (see e.g., FIG. 26A and FIG. 27A). […] HD.40-HEFs expressed fibroblast markers vimentin and fibronectin (see e.g., FIG. 26B). […] Upon direct conversion of HD.40-HEFs to MSNs (human embryonic MSNs, heMSNs), little to no aggregated mHTT was detectable in HD-heMSNs at PID 21 (see e.g., FIG. FIGS. 24B and 24C). […] It was then decided to investigate differences in mHTT aggregation propensity to elucidate the contribution of aging to protein aggregation in HD. […] To directly test if proteasome activity was preventing the formation of inclusions in HEFs, GFP-74Q-expressing HEF cells were treated with the proteasome inhibitor lactacystin, and assessed the presence of inclusions 24 hours later. […]

Chain of ATM (Q13315 whole entry, species assumed): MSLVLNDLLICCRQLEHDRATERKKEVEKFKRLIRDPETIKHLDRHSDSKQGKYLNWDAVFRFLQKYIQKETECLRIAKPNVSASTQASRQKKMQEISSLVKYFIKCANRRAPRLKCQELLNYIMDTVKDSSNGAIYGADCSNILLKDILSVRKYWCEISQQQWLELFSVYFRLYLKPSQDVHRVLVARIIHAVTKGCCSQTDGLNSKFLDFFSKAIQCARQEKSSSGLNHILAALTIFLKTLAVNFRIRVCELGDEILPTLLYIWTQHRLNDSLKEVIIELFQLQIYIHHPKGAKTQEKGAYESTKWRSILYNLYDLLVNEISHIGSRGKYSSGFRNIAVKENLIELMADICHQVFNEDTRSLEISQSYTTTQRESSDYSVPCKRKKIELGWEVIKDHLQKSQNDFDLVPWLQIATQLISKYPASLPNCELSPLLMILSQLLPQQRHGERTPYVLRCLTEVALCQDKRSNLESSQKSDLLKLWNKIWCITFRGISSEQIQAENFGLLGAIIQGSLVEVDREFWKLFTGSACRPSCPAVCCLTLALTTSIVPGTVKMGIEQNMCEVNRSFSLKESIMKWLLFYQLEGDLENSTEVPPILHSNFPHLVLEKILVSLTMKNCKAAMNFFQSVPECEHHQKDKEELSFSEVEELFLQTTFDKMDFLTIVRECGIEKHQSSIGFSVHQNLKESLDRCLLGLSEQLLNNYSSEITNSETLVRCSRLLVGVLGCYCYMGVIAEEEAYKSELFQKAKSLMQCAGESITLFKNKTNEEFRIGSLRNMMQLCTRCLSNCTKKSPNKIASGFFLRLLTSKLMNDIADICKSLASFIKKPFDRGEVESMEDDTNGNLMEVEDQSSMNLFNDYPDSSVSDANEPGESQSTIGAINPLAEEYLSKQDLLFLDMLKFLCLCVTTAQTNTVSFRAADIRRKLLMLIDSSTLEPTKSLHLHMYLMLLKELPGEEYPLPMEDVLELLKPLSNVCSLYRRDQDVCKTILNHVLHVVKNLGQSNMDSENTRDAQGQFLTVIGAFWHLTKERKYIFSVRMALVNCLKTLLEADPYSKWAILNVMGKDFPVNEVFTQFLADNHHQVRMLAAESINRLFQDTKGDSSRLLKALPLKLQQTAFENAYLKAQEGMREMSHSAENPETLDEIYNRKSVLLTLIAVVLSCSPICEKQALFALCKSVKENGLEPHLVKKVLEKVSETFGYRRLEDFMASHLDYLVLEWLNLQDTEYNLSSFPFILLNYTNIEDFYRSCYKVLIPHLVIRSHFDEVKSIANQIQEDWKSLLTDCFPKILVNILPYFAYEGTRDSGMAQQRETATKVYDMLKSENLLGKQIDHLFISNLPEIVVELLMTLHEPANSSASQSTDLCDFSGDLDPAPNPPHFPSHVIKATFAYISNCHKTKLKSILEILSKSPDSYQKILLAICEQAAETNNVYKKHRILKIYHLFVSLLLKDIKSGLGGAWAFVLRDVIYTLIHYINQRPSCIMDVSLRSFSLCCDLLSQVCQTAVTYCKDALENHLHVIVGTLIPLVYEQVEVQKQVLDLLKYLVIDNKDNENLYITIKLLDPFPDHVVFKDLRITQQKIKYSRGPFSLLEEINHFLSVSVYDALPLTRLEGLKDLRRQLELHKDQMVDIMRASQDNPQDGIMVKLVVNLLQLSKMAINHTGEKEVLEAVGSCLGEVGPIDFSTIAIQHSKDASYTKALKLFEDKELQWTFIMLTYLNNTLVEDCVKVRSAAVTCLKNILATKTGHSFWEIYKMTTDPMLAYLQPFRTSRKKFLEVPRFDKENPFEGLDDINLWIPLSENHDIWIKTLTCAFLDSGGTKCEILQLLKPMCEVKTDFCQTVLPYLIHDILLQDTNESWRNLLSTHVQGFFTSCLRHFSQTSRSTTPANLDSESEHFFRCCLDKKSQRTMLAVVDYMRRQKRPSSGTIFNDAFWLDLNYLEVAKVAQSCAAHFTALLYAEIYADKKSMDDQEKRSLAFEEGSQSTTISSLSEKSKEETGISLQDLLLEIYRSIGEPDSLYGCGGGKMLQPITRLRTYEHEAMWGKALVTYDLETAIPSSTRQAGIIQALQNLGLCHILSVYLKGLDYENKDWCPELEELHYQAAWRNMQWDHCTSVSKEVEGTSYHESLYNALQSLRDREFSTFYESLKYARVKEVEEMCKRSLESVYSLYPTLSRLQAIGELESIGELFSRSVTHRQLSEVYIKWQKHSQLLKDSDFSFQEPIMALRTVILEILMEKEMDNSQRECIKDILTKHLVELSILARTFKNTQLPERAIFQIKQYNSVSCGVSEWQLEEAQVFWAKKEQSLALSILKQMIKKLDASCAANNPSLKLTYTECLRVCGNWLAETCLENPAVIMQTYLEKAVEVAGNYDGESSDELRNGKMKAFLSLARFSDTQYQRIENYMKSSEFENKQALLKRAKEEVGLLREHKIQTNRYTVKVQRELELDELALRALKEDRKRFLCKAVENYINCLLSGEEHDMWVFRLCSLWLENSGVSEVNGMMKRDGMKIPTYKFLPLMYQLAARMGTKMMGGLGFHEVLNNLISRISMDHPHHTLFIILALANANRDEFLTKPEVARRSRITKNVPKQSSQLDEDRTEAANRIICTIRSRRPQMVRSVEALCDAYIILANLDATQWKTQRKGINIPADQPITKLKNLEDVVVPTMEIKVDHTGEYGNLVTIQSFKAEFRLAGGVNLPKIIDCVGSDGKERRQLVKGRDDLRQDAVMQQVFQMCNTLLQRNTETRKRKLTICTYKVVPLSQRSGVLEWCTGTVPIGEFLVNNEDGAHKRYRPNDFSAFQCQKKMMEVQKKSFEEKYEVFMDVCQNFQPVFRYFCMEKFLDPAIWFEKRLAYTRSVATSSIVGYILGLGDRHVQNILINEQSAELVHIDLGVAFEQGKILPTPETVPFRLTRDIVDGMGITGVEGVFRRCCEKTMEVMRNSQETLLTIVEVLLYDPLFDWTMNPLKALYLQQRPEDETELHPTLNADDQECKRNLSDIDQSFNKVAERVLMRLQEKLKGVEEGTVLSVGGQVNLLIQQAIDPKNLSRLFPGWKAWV

As for `C[C@@H]1CN(CC(=O)Nc2ccc3c(c2)Cc2cccc(-c4cc(=O)cc(N5CCOCC5)o4)c2S3)C[C@H](C)O1` [KU60019], in assay [1], the mHTT-induced cell death entry is reported as “reduce mHTT-induced cell death”. Further, in assay [2], the “levels of spontaneous cell death (SYTOX-positive cells over Hoechst)” value was “significantly reduced; also recorded: reduces cell death levels”. Further, the “levels of stress-induced cell death (H2O2-induced oxidative stress)” value in assay [3] is listed as “significantly reduced; also recorded: protects HD-MSNs against H2O2-induced oxidative stress”.
With `CC(=O)N[C@@H](CSC(=O)[C@]1([C@@H](O)C(C)C)NC(=O)[C@H](C)[C@@H]1O)C(=O)O` [lactacystin], the “number of cells bearing inclusions (IBs)” value in assay [4] is recorded as “induces IBs”; in assay [4] (listed as Lactacystin), “significantly increased”.
